Measurements taken from patent US6831080B2, “Cinnamide derivatives as KCNQ potassium channel modulators” (Bristol-Myers Squibb Company, priority 2001, dated 2004).

Tests used:
[1] = tested on: stretched attend postures, BalbC/HSD mice; test: Canopy test for anxiety: stretched attend postures (SAPs); type: in vivo, mouse; conditions: for % Reduction SAPs: i.v., mouse
Excerpt: The purpose of the Canopy test is to investigate the potential of compounds of Formula I as effective treatments for anxiety by examining an integral component of the risk assessment repertoire of defensive behaviors, the stretched attend posture (SAPs). […] This behavior is investigatory, and is considered an important behavioral indicator of anxiety in mice (Grewal et al., 1997). In brief, mice are placed on an elevated circular platform with a covered space in the middle, and an open space surrounding the covered zone. The number of SAPs the animals makes when exploring this environment are measured.
Subjects: Male BalbC/HSD mice (Harlan Sprague Dawley) weighing approximately 20-25 g at the beginning of the experiment, were used. Animals were group housed 4-5 per cage, in standard shoebox cages and maintained on a 12:12 h light-dark cycle (lights on at 0600). All animals were allowed food and water ad libitum throughout the procedure.
Apparatus: The test apparatus is comprised of a black plexiglas circular platform (70 cm diameter) elevated 60 cm above the floor. A clear red plexiglas (translucent) ‘canopy’ (38 cm diameter) is supported 4 cm directly above the platform by a central pillar, effectively dividing the platform into an inner, covered zone (beneath the canopy) and an outer, exposed zone. The apparatus is illuminated by normal room lighting.
Procedure: On test days mice are transported in their home cage to the testing room which is free of noise/distraction and the mice are injected with the compound of choice, prior to testing. For the KCNQ compounds, when administered IV, pretreatment time is 15 minutes. For oral administration, pretreatment time is 1 hour. Following the pretreatment, the animal is placed in the covered zone of the platform, always oriented in the same direction, facing the pillar. For 5 minutes the animals are allowed to freely explore the apparatus. The dependent variable is the number of Stretched Attend Postures, which are scored by an observer blind to treatment condition. Data were analyzed by an overall analysis of variance followed by Dunnett's post hoc tests. An effect was considered significant if p<0.05.
All test compounds are administered in a volume of 10 ml/kg. Vehicle and buspirone (as the positive control) treated mice were run with each experiment, and buspirone was dissolved in the same vehicle as used per each compound. Compounds of Formula I were administered IV, in a vehicle containing 10% PEG400/5% Tween/85% water, warmed on a hot plate.

[2] = tested on: nerve injury-induced tactile allodynia (L5/L6 ligation), Sprague Dawley rats; test: Chung model of neuropathic pain (Chung surgery and von Frey test); type: in vivo, rat; conditions: i.v., von Frey thresholds over 90 min
Method: To test agents for activity against peripheral mononeuropathy nerve injury-induced tactile allodynia, male Sprague Dawley rats (wt. 120-160 g) were surgically prepared with unilateral tight ligation of spinal nerves L5 and L6 following the method of Kim and Chung (Kim S. H., Chung J. M. (1992) Pain, September;50(3):355-63). After 3-4 weeks recovery, paw withdrawal to light touch was assessed as described by Chaplan et al. (Chaplan S. R., et al., (1994) J. Neurosci Methods, July;53(1):55-63). In brief, rats are placed in a plastic cage with a wire mesh bottom and allowed to acclimate for 15-30 minutes, until cage exploration and grooming stops. The plantar surface of each hind paw is touched with a series of von Frey hairs with varying stiffness requiring a known force to buckle to determine the nociceptive threshold. Adult male Sprague Dawley rats (avg. wt. 340 g) were tested in the present study. After acclimation, baseline von Frey thresholds were assessed for the injured hindpaw at −15 min. All test compounds were delivered at 0 min by the intravenous (i.v.) route in a volume of 0.5-2 ml/kg. The vehicle for test compounds was 100% PEG-400. For gabapentin the vehicle was deionized H2O. Animals were tested in one of the following 4 treatment conditions: (a) PEG400, (b) gabapentin (Neurontin) 100 mg/kg, (c) test compounds 3 mg/kg and (d) test compounds 10 mg/kg. Following drug administration, von Frey thresholds are measured at 15, 30, 60 and 90 min. Data were analyzed by a 2-way repeated measures analysis of variance followed by Dunnett's test (p<0.05). Experimenters were kept blind to the treatment condition of rats they tested.
Reversal of neuropathic pain behavior may be expressed as a percentage (0-100%) of the maximum possible effect, over and above the vehicle effects. Specifically, drug effects can be described in terms Δ% MPE according to the following equation: [formula]
AUCdrug=area under the curve for von Frey thresholds of the drug-treated group;
AUCvehicle=area under the curve for von Frey thresholds in the vehicle group;
Time=duration of post-drug testing period (90 min); and
Max=maximum von Frey threshold (15 g).
For example, a compound which immediately reversed neuropathic pain behavior to normal levels, such that animals only responded to the highest von Frey filament (15 g), and maintained normal levels through out the post-drug testing period (90 min) would be calculated as Δ% MPE=100%.

[3] = tested on: cortical spreading depression (KCl application), Long-Evans rats; test: In vivo electrophysiology: number of cortical spreading depressions produced by KCl application; conditions: 1 mg/kg, i.v., 15 min prior to KCl; rat
Excerpt: Male Long-Evans rats (300-450 g) were used in the present studies (Harlan). Rats were anesthetized with urethane anesthesia (1.2 g/kg i.p.) and placed in a stereotaxic frame. Under anesthesia a Silastic catheter was placed in the jugular vein of the rats. The skull was exposed using a scalpel. A small hole (approximately 2 mm by 3 mm) was drilled in to the skull rostral to the lambdoid suture using a microdrill and steel burr. The dura was disrupted and a drop of mineral oil was placed in this hole to prevent dehydration of the underlying cortex. Ultimately this hole was used for the application of crystalline KCl (described below).
Two additional holes were place in the skull unilaterally at 4 and 8 mm rostral to the application hole. Silver wire electrodes were placed in these latter holes and secured to the skull using acrylic cement. A similar silver wire electrode was sutured to the nuchal muscle to serve as a reference electrode. Electrical DC recordings were obtained using a standard differential amplifier (Warner, DP-304) and commercially available data acquisition equipment (Cambridge Electronic Design, 1401 A-D converter and Spike2 software).
All experimental procedures were conducted while the rats were maintained under anesthesia. Rats were injected with test compound, valproic acid or vehicle (100% PEG-400) 15 min prior to the application of crystalline KCl to the application site described above. All injections were given via the jugular vein at a volume of ≦0.5 ml/kg. Only one treatment was tested per animal. The effect of valproic acid was also determined in this study due to the fact that Depakote™ (divalproex sodium) is one of only three drugs currently indicated for the prophylatic treatment of migraine headache. Valproic acid (30-200 mg/kg i.v.) was obtained from Sigma Chemical Company and was dissolved in a vehicle of isotonic saline.
KCl was applied to the application site for 10 min and was then removed using a saline soaked cotton swab. Mineral oil was subsequently reapplied to the application site. Typically, this application produced a long-lasting series of spreading depressions. The number of spreading depressions produced by this KCl application was the primary measure used to access the effectiveness of compounds in this assay.
Data were analyzed using analyses of variance followed by the Dunnett post-hoc test for pairwise comparisons, when appropriate. A difference was considered significant when p≦0.05.
The effect of representative compounds of Formula I on spreading depression is expressed as the percent reduction from vehicle control and is listed in Table 3.

Compound	% Reduction SAPs ([1]; 1.25 mg/kg)	AUC (Δ% MPE) ([2]; 3 mg/kg)	% Reduction (number of spreading depressions, from vehicle control) [3]	% Reduction SAPs ([1]; 30 mg/kg)	Stretched attend postures, percent of vehicle control ([1]; separate experiments with a vehicle control, dose not given)	AUC (Δ% MPE) ([2]; 10 mg/kg)	% Reduction SAPs ([1]; 10 mg/kg)
C[C@H](NC(=O)/C=C/c1ccc(F)cc1)c1ccc2ccccc2c1 [Example 1, (S)-3-(4-Fluoro-phenyl)-N-(1-naphthalen-2-yl-ethyl)acrylamide]	44 (1.25 mg/kg, iv.) %	8 (3 mg/kg, i.v.) Δ% MPE	25 (1 mg/kg, i.v.) %				
C[C@H](NC(=O)/C=C/c1ccccc1)c1cccc(N2CCOCC2)c1 [Example 82, (S)-3-Phenyl-N-[1-(3-morpholin-4-yl-phenyl)ethyl]acrylamide]			27 (1 mg/kg, i.v.) %	28 (30 mg/kg, i.v.) %	75 % of vehicle control	25 (10 mg/kg, i.v.) Δ% MPE	
C[C@H](NC(=O)/C=C/c1ccc(F)cc1)c1ccc(F)c(N2CCOCC2)c1 [Example 169, (S)-N-[1-(4-Fluoro-3-morpholin-4-yl-phenyl)-ethyl]-3-(4-fluoro-phenyl)-acrylamide]			25 (1 mg/kg, i.v.) %			31 (10 mg/kg,i.v.) Δ% MPE	18 (10 mg/kg, i.v.) %
